# Experimental data from ChEMBL document CHEMBL1201862, “PubChem BioAssay data set” (2004).
# Calls of active or inactive are those of the source.
# How the values were obtained:
# cells = conditions: HEK293;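 further: cells exposed to compound for 48 hours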
# [1] = molecular target: T1, Voltage-gated N-type calcium channel alpha-1B subunit/Amyloid beta A4 precursor protein-binding family A member 1 (Homo sapiens, UniProt Q00975+Q02410); format: protein assay
# [2] = molecular target: T2, Apoptotic protease-activating factor 1 (Homo sapiens, UniProt O14727); format: functional
# T2 sequence (O14727 whole entry): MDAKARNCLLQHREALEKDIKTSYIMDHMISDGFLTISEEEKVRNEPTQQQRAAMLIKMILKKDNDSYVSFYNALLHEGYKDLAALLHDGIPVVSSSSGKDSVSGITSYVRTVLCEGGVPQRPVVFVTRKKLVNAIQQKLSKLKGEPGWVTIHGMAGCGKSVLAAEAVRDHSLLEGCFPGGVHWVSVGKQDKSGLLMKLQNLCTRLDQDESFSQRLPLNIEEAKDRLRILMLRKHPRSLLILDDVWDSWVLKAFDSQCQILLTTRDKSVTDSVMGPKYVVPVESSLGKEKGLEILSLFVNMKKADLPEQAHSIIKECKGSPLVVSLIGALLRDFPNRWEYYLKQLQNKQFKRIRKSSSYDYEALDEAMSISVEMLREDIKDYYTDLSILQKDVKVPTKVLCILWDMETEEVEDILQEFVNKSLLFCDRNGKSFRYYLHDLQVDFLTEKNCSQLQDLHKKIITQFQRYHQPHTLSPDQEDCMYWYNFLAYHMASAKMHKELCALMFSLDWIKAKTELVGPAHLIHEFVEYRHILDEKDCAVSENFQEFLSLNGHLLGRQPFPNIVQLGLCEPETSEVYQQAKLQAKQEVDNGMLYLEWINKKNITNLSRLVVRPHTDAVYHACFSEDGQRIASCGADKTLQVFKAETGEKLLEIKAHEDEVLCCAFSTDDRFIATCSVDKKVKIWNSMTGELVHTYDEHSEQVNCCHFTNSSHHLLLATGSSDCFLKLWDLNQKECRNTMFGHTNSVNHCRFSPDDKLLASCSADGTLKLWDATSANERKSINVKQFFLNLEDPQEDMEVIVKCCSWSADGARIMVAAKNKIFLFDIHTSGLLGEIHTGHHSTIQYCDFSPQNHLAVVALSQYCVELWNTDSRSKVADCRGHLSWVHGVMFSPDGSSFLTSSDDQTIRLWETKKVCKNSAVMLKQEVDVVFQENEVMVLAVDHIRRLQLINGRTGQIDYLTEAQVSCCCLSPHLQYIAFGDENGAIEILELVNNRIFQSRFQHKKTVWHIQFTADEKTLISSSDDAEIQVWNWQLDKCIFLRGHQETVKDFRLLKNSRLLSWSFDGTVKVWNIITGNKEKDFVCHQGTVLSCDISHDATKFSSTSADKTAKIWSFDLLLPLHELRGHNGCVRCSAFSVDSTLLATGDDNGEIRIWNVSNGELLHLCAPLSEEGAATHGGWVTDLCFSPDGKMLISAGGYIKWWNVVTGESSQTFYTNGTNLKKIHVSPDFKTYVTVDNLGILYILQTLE
# SUMO-activating enzyme [3] = molecular target: T3, SUMO-activating enzyme (Homo sapiens, UniProt Q9UBT2); assay: SUMOylation inhibitor hit validation, confirmation, SUMOylation inhibitor project, biochemical, AlphaScreen (AID 2018); format: functional
# T3 sequence (Q9UBE0 whole entry): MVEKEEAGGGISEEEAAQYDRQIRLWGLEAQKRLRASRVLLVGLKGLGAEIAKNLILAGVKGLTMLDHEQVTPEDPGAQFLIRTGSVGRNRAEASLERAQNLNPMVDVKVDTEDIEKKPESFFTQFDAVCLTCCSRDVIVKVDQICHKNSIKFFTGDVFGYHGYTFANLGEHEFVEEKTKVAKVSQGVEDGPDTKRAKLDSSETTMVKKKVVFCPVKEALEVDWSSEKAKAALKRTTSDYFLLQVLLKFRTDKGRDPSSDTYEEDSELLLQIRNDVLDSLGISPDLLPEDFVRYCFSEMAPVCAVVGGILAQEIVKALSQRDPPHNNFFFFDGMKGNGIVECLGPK
# T3 sequence (Q9UBT2 whole entry): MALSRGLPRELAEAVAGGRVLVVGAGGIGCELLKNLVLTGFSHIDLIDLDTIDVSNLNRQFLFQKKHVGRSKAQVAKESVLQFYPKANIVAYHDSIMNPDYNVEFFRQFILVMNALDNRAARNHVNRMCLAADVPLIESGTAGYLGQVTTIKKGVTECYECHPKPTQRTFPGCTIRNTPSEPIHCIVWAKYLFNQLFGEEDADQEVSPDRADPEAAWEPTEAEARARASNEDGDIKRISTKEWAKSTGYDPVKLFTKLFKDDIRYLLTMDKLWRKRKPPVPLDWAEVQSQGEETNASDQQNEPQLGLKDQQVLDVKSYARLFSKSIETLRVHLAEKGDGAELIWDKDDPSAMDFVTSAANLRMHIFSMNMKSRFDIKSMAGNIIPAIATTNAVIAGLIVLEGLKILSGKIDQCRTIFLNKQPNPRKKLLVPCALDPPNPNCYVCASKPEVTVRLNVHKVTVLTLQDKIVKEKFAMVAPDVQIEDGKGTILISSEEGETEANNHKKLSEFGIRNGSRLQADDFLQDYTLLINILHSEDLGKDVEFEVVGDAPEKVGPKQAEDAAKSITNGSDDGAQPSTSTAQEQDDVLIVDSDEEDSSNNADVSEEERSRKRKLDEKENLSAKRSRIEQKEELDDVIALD
# [4] = molecular target: T4, Polyadenylate-binding protein 1 (Homo sapiens, UniProt P11940); assay: PABP1 MLLE–PAM2 binding inhibitor potency, dose response, biochemical, fluorescence polarization, FITC-PAM2 peptide (AID 602259); format: functional; conditions: read-out: IC50_Mean
# T4 sequence (P11940 whole entry): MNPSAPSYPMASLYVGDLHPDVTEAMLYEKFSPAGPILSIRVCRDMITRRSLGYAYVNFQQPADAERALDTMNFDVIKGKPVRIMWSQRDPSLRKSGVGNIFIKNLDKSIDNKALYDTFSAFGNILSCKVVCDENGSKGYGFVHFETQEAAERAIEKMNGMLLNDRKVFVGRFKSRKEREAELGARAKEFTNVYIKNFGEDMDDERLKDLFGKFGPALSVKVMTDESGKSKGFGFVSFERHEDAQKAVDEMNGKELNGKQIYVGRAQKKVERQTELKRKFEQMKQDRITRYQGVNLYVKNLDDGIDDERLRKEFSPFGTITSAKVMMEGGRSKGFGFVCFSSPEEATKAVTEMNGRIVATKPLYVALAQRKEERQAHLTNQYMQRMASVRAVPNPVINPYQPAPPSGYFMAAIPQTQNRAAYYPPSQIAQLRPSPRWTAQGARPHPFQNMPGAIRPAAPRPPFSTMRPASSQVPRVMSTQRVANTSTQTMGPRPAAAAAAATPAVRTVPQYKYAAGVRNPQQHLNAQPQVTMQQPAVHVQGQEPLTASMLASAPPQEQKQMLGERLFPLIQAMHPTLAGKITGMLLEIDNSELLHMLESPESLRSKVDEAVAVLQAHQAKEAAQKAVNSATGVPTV
# [5] = molecular target: Mannose-6-phosphate isomerase (Homo sapiens, UniProt P34949); assay: human PMI inhibitors, high substrate, primary screen, biochemical, fluorescence intensity, high mannose 6-phosphate (AID 1220)
# [6] = molecular target: Glucose-6-phosphate 1-dehydrogenase (Homo sapiens, UniProt P11413); assay: human G6PD enzyme inhibitors, dose response, selectivity assay for P. falciparum G6PD inhibitor project, biochemical, fluorescence (AID 504792); format: functional
# [7] = molecular target: T4, Polyadenylate-binding protein 1; assay: PABP1 MLLE–PAM2 interaction inhibitors, dose response, miRNA deadenylation inhibitor project, biochemical, fluorescence polarization, Cy5-PAM2 peptide, secondary (AID 602260); format: functional; conditions: read-out: IC50_Mean
# SUMO-activating enzyme [8] = molecular target: T3, SUMO-activating enzyme; assay: inhibitors of in vitro SUMOylation cascade, primary screen, biochemical, HTRF, uHTS (AID 2006); format: protein-complex assay
# [9] = molecular target: T1, Voltage-gated N-type calcium channel alpha-1B subunit/Amyloid beta A4 precursor protein-binding family A member 1; format: protein assay; remark: listed apart in the source
# HEK293 = assay: HEK293T cell cytotoxicity, dose response, cytotoxicity control, ATP luminescence, cherry-pick samples (AID 687005); format: functional, cell-based; conditions: Homo sapiens;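 further: cells exposed to compound for 48 hours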
# [10] = cytotoxicity in HEK293 cells, dose response, cytotoxicity control, cell-based, plate reader, cherry-pick (AID 651899); format: functional
# [11] = HEK293 Cytotoxicity Assay Measured in Cell-Based System Using Plate Reader - 7071-01_Inhibitor_Dose_CherryPick_Activity_Set2.; format: functional
# [12] = molecular target: Adenosylmethionine-8-amino-7-oxononanoate aminotransferase (Mycobacterium tuberculosis, UniProt P9WQ81); assay: Mycobacterium tuberculosis BioA enzyme inhibitor Measured in Biochemical System Using Plate Reader - 2163-02_Inhibitor_Dose_CherryPick_Activity.; format: functional, Mycobacterium tuberculosis UT205
# [13] = molecular target: COUP transcription factor 2 (Homo sapiens, UniProt P24468); assay: Luminescence-based cell-based high throughput dose response assay to identify inhibitors of COUP-TFII (NR2F2).; format: functional;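 further: HEK293 cells transiently cotransfected with COUP-TFII expression vector and reporter; luciferase reporter luminescence driven by COUP-TFII from the pX2-168 reporter plasmid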
# [14] = A549 cell cytotoxicity, dose response, cytotoxicity control, plate reader, cherry-pick, antagonist series (AID 743412); format: functional, cell-based
# [15] = Shn3 3'UTR reporter inhibitors, dose response, cell-based, Clone20 osteoblasts, firefly luciferase, cherry-picked (AID 624132); format: functional;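 further: firefly luciferase luminescence from reporter carrying the Shn3 3'UTR in osteoblasts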
# [16] = LGR2 antagonists, dose response, cell-based, HEK293, CRE-luciferase reporter, cherry pick, set 2 (AID 743343); format: functional;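 further: transfected cells were stimulated with diluted bursicon conditioned medium after compound addition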
# [17] = HepG2 cell cytotoxicity, dose response, cytotoxicity control, plate reader, cherry-pick, antagonist series (AID 743416); format: functional, cell-based
# [18] = molecular target: T5, Microphthalmia-associated transcription factor (Homo sapiens, UniProt O75030); assay: TRPM1 promoter luciferase signal decrease, dose response, MITF inhibitor project, cell-based, SK-MEL-5, cherry-picked, set 3 (AID 493073); format: functional
# T5 sequence (O75030 whole entry): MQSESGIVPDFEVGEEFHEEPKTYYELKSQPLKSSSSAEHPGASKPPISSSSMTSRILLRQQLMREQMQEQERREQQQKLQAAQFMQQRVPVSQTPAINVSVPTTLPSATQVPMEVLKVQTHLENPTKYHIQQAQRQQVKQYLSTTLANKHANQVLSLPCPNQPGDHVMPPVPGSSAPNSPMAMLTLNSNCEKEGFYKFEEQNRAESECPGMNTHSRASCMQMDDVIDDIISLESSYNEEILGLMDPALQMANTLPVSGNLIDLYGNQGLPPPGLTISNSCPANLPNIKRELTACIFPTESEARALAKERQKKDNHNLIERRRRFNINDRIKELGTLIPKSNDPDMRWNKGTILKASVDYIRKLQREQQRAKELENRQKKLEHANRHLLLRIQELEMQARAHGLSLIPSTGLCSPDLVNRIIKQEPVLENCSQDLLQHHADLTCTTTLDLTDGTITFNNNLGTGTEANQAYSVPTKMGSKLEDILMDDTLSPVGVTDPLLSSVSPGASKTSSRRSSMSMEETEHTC
# [19] = MC4R antagonists, dose response, counter-screen for LGR2 antagonist project, cell-based, plate reader, cherry pick (AID 743444); format: functional;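 further: transfected HEK 293 cells stimulated with alpha-MSH peptide; potency of inhibitors of the alpha-MSH evoked signal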
# [20] = reduction of Shn3 3'UTR firefly luciferase signal, dose response, Schnurri-3 inhibitor project, cell-based, Clone20 osteoblasts, cherry-pick, set 2 (AID 720490); format: functional;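 further: actives lower the luminescence signal as inhibitors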
# [21] = HEK293 cell cytotoxicity, dose response, cytotoxicity control, plate reader, cherry-picked samples (AID 743446); format: functional, cell-based
# [22] = molecular target: T6, Heat shock factor protein 1 (Mus musculus, UniProt P38532); assay: inhibition of MG132-induced HSE-luciferase signal, confirmation, cell-based, NIH3T3, luminescence, dose retest (AID 2382); format: functional;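 further: NIH3T3 fibroblasts with HSF1-driven luciferase reporter stressed by proteasome inhibitor MG132; luminescence from HSF1-driven luciferase expression after 8 hours of MG132 stress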
# T6 sequence (P38532 whole entry): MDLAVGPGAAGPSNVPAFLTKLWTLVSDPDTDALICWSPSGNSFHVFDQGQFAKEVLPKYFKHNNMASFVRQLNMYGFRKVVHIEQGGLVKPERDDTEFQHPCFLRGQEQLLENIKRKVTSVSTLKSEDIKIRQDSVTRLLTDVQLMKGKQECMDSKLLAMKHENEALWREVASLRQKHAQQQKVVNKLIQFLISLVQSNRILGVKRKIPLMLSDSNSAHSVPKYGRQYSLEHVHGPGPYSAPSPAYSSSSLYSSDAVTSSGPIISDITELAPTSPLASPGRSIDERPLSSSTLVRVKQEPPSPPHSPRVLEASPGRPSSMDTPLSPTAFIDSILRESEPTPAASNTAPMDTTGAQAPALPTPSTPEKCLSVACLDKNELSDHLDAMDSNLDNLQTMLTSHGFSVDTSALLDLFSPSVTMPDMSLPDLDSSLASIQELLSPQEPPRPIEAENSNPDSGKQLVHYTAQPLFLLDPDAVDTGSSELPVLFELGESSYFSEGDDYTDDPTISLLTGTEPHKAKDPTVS
# T1 sequence (Q00975 whole entry): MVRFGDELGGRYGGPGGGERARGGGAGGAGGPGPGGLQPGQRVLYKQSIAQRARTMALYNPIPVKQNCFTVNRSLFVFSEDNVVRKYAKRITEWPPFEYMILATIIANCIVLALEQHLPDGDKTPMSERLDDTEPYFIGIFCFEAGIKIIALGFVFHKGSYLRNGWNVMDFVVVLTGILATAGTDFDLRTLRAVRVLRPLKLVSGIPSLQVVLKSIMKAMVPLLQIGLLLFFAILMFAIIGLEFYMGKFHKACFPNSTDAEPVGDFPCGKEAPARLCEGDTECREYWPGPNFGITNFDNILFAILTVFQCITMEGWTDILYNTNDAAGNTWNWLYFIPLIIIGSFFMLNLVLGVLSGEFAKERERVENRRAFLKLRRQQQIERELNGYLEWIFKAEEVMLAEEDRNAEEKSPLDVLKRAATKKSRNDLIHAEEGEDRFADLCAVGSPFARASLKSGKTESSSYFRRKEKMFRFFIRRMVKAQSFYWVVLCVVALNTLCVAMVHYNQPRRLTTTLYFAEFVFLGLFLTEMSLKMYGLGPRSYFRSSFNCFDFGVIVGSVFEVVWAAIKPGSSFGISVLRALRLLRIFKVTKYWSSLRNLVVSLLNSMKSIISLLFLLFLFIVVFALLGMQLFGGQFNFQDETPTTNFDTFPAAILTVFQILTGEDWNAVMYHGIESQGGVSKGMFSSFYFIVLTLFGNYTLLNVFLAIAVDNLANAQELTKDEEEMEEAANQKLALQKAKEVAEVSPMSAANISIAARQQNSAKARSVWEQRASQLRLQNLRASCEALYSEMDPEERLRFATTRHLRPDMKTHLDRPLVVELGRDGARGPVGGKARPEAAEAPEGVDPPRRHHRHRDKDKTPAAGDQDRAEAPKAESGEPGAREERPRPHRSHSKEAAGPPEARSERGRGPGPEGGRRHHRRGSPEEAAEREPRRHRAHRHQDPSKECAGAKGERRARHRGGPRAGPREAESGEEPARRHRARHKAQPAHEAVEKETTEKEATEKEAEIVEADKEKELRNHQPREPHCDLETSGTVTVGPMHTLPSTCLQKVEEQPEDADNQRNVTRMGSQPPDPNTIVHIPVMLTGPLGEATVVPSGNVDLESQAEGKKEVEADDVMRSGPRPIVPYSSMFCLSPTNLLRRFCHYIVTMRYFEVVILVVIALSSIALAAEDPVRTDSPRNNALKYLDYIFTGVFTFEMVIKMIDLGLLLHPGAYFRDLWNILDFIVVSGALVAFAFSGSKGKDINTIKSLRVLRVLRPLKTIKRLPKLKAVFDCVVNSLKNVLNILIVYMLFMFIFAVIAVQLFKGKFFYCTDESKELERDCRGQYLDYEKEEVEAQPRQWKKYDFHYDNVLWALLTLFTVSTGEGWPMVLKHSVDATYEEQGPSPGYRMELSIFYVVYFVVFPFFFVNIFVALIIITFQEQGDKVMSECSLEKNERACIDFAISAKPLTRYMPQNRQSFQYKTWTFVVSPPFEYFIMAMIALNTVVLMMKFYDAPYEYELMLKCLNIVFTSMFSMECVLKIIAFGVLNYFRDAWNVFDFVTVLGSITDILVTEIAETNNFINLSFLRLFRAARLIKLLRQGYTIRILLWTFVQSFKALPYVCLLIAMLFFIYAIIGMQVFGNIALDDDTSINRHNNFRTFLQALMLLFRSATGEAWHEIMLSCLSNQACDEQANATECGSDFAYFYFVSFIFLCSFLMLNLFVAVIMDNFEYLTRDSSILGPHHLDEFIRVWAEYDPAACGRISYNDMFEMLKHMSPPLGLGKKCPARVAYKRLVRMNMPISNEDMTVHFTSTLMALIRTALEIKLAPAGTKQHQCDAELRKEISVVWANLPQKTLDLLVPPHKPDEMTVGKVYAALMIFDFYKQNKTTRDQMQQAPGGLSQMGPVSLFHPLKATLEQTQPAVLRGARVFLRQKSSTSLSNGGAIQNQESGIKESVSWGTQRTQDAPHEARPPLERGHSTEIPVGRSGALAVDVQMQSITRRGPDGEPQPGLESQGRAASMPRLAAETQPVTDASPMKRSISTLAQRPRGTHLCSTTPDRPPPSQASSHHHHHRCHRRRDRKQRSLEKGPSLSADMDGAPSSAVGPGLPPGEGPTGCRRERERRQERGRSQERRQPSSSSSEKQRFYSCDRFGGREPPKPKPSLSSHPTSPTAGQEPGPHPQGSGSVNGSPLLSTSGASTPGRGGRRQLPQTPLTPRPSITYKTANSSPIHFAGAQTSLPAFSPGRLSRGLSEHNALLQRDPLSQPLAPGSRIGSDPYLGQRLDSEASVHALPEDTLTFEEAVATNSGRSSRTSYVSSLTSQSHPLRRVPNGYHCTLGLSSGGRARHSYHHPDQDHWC
# T1 sequence (Q02410 whole entry): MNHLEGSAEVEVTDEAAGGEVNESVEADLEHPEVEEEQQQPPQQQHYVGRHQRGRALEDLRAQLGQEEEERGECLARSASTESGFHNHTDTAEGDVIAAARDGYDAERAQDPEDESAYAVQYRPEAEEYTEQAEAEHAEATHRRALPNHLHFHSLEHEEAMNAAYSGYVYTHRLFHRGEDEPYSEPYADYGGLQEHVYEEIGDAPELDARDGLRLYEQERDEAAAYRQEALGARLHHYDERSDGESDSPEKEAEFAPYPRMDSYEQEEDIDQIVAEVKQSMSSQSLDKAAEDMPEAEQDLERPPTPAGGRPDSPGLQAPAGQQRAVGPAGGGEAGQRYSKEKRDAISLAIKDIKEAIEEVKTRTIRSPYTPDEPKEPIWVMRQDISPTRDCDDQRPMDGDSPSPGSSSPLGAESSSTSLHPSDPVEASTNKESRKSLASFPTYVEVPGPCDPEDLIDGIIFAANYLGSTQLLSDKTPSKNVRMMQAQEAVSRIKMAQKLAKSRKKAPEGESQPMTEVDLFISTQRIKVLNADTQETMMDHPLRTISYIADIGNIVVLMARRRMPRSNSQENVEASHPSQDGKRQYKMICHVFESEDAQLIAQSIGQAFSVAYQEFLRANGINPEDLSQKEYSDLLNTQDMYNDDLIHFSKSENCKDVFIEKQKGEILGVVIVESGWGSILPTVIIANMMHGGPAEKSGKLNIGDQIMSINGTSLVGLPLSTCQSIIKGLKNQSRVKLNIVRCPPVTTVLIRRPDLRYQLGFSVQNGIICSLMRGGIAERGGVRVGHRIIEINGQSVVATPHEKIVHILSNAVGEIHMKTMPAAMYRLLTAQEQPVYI
smiles,measurement,setting,value
CCOC(=O)c1c2ccc(OCC(=O)NN)cc2n2ccccc12,AC50,cells,> 52 µM (inactive)
same,IC50,[1],2.73 µM (active)
same,IC50,[2],18.5 µM (active)
same,IC50,SUMO-activating enzyme [3],6.82 µM (active)
same,IC50,[4],33.6 µM (inactive)
same,IC50,[5],> 50 µM (not active)
same,IC50,[6],62.8 µM (inactive)
same,IC50,[7],> 66 µM (inactive)
same,IC50,SUMO-activating enzyme [8],1.64 µM (active)
same,IC50,[9],40.2 µM (active)
CC(=O)c1ccc(N2CCN(C(=O)Cc3cccs3)CC2)cc1,AC50,HEK293,> 52 µM (inactive)
same,AC50,[10],3.82 µM (active)
same,AC50,[11],> 52 µM (inactive)
same,AC50,[12],11.6 µM (active)
C=CCC1(CC=C)CCCN1C(=O)c1cc(COc2ccc(-n3cncn3)cc2)on1,IC50,[13],7.88 µM (active)
O=C(O)c1cccc(COc2ccccc2Cl)c1,AC50,[14],> 52 µM (inactive)
same,AC50,[15],1.48 µM (active)
same,AC50,[16],0.517 µM (active)
same,AC50,[17],> 52 µM (inactive)
same,AC50,[18],0.756 µM (active)
same,AC50,[19],0.488 µM (active)
same,AC50,[20],4.74 µM (active)
same,AC50,[21],> 52 µM (inactive)
same,EC50,[22],1.06 µM (active)
